Results: US8143262B2, “7-(3′,4′-Dialkoxyphenyl)[1,2,4]-triazolo[1,5-A]pyrimidine compounds, process for preparing thereof, and pharmaceutical composition for treating or preventing asthma, chronic obstructive pulmonary disease, arthritis, atopic dermatitis, tumor and degenerative brain diseases comprising the same” (Korea Research Institute of Chemical Technology, priority 2007, dated 2012)

Each compound was assayed against T1, Human PDE-4d (Homo sapiens, UniProt Q08499) (assay: Inhibition of PDE-4 activity ([3H]cAMP hydrolysis, recombinant catalytic domain)). Conditions: PDE4d 1 nM, cAMP 250 nM, 34° C., 45 minutes; read-out: IC50 against PDE-4 enzyme.
T1 construct: The catalytic domain of PDE4d was cloned to pGEX4T3 (APBiotech) as GST fusion expression vector; GST (N); made in house; host or cells: E. coli BL21, DE3
Format: biochemical
Protocol: Experiment of inhibiting PDE-4 activity was carried out by modifying the method of Loughney (Loughney et al., Journal of Biological Chemistry, 1996, 271(2), 796-806). Human PDE-4d prepared by means of gene recombination technology was used as PDE-4d
The catalytic domain of PDE4d was cloned to pGEX4T3 (APBiotech) as GST fusion expression vector, and then PDE4d gene was transformed to E. coli BL21, DE3. The strain was cultured at 37° C. in LB medium, and when OD reached about 0.3˜0.5, the temperature was lowered to 18° C. to induce expression of PDE4d by using 0.5 mM IPTG. After 15 hours from induction of the expression, cells with PDE4d expressed were recovered. The cells were suspended in a buffer solution (50 mM Tris, pH 8.0, 0.4M NaCl, 5 mM DTT), and crushed, centrifuged and purified. The columns used for the purification were Q-cephalose (APBiotech), Glutanione-cephalose (APBiotech) and Superdex200 gel permeation chromatography (APBiotech), in this order.
In order to measure the ability of individual compound to inhibit PDE4d activity, PDE4d 1 nM and cAMP (Sigma) 250 nM as substrate were added to the reaction buffer (50 mM Tris-HCl (pH 7.5) and 4 mM MgCl2), and individual compound obtained from Example 1 was added in a concentration from 1 to 50 μM thereto, and the mixture was reacted at 34° C. for 45 minutes. Total reaction solution was 60 μl. As to cAMP, a mixture with the ratio of [^3H]cAMP (Amersham, 1 μCi/μl) to cAMP (hot:cold, that is, isotope:non-isotope) being 1:200 was used. Then, the reaction was quenched by heating at 95° C. for 2 minutes. After cooling the mixture for 3 minutes, 1 mg/ml of Snake Venome (Sigma V0376) (30 μl) was added thereto. After reacting at 34° C. for 30 minutes, 30 μl of the reaction mixture was added to 250 μl of DOWEX 1×2-100 ion exchange resin (Aldrich, previously mixed with distilled water in a ratio of 1:1.6) by portions, and the mixture was vigorously stirred for 2 minutes. After settling the resin down, the supernatant (130 μl) was added to 2 ml of scintillation cocktail (Packard), and the mixture was thoroughly mixed, and then measured by using beta-counter. With respect to the enzyme activity of control group (experiment carried out without adding compound of Chemical Formula (1)), the concentration of each test compound to inhibit 50% of enzyme activity was determined as IC50.

T1 sequence (Q08499 386-715 limits assumed): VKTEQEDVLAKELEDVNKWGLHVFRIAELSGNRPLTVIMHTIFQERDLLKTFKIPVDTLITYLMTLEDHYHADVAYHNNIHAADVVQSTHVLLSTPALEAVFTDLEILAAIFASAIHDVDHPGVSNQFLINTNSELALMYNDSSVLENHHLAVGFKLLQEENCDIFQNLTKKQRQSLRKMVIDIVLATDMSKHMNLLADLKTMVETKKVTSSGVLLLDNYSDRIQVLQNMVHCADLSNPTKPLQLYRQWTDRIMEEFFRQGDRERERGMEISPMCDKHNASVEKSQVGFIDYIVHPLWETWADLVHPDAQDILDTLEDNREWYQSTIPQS

Row | SMILES | IC50
1 | N#Cc1ccc(-c2nc3nccc(-c4ccc(OC(F)F)c(OCC5CC5)c4)n3n2)cc1 [Compound 117, 2-(4-Cyanophenyl)-7-[3-(cyclopropylmethoxy)-4-(difluoromethoxy)phenyl]-[1,2,4]triazolo[1,5-a]pyrimidine] | 50 nM
2 | Cc1ccc(-c2nc3nccc(-c4ccc(OC(F)F)c(OCC5CC5)c4)n3n2)cc1 [Compound 113, 7-[3-(Cyclopropylmethoxy)-4-(difluoromethoxy)phenyl]-2-p-tolyl-[1,2,4]triazolo[1,5-a]pyrimidine] | 50 nM
3 | FC(F)Oc1ccc(-c2ccnc3nc(-c4ccc(I)cc4)nn23)cc1OCC1CC1 [Compound 127, 7-[3-(Cyclopropylmethoxy)-4-(difluoromethoxy)phenyl]-2-(4-iodophenyl)-[1,2,4]triazolo[1,5-a]pyrimidine] | 50 nM
4 | O=C(O)c1cccc(-c2nc3nccc(-c4ccc(OC(F)F)c(OCC5CC5)c4)n3n2)c1 [Compound 131, 3-[7-{3-(Cyclopropylmethoxy)-4-(difluoromethoxy)phenyl}-[1,2,4]triazolo[1,5-a]pyrimidin-2-yl]benzoic acid] | 20 nM
5 | CSc1ccc(-c2nc3nccc(-c4ccc(OC(F)F)c(OCC5CC5)c4)n3n2)cc1 [Compound 140, 7-[3-(Cyclopropylmethoxy)-4-(difluoromethoxy)phenyl]-2-(4-methylthiophenyl)-[1,2,4]triazolo[1,5-a]pyrimidine] | 35 nM
6 | N#Cc1ncccc1-c1nc2nccc(-c3ccc(OC(F)F)c(OCC4CC4)c3)n2n1 [Compound 124, 2-(6-cyano-pyridin-5-yl)-7-[3-(cyclopropylmethoxy)-4-(difluoromethoxy)phenyl]-[1,2,4]triazolo[1,5-a]pyrimidine] | 190 nM
7 | FC(F)Oc1ccc(-c2ccnc3nc(-c4ccc(C(F)(F)F)cc4)nn23)cc1OCC1CC1 [Compound 125, 7-[3-(Cyclopropylmethoxy)-4-(difluoromethoxy)phenyl]-2-(4-trifluoromethylphenyl)-[1,2,4]triazolo[1,5-a]pyrimidine] | 190 nM
8 | [O-][n+]1cc(-c2nc3nccc(-c4ccc(OC(F)F)c(OCC5CC5)c4)n3n2)ccc1Cl [Compound 108, 3-[7-{3-(Cyclopropylmethoxy)-4-(difluoromethoxy)phenyl}-[1,2,4]triazolo[1,5-a]pyrimidine-2-yl]-6-Chloropyridine-N-oxide] | 240 nM
9 | Cc1ccc(-c2nc3nccc(-c4ccc(OC(F)F)c(OCC5CC5)c4)n3n2)c(C)c1 [Compound 136, 7-[3-(Cyclopropylmethoxy)-4-(difluoromethoxy)phenyl]-2-(2,4-dimethylphenyl)-[1,2,4]triazolo[1,5-a]pyrimidine] | 60 nM
10 | O=[N+]([O-])c1cccc(-c2nc3nccc(-c4ccc(OC(F)F)c(OCC5CC5)c4)n3n2)c1 [Compound 116, 7-[3-(Cyclopropylmethoxy)-4-(difluoromethoxy)phenyl]-2-(3-nitrophenyl)-[1,2,4]triazolo[1,5-a]pyrimidine] | 20 nM
11 | O=C(O)c1ccc(-c2nc3nccc(-c4ccc(OC(F)F)c(OCC5CC5)c4)n3n2)cc1 [Compound 118, 4-[7-{3-(cyclopropylmethoxy)-4-(difluoromethoxy)phenyl}-[1,2,4]triazolo[1,5-a]pyrimidin-2-yl]benzoic acid] | 30 nM
12 | COc1ccc(-c2ccnc3nc(-c4cccnc4)nn23)cc1OC1CCCC1 [Compound 135, 7-[3-(Cyclopentoxy)-4-methoxyphenyl]-2-(3-pyridyl)-[1,2,4]triazolo[1,5-a]pyrimidine] | 50 nM
13 | Cc1cc(C)cc(-c2nc3nccc(-c4ccc(OC(F)F)c(OCC5CC5)c4)n3n2)c1 [Compound 133, 7-[3-(Cyclopropylmethoxy)-4-(difluoromethoxy)phenyl]-2-(3,5-dimethylphenyl)-[1,2,4]triazolo[1,5-a]pyrimidine] | 42 nM

Further lines, results first:

Row | IC50 | SMILES
14 | 14 nM | FC(F)Oc1ccc(-c2ccnc3nc(-c4cccc(Br)c4)nn23)cc1OCC1CC1 [Compound 121, 2-(3-Bromophenyl)-7-[3-(cyclopropylmethoxy)-4-(difluoromethoxy)phenyl]-[1,2,4]triazolo[1,5-a]pyrimidine]
15 | 30 nM | FC(F)Oc1ccc(-c2ccnc3nc(-c4cccc(C(F)(F)F)c4)nn23)cc1OCC1CC1 [Compound 128, 7-[3-(Cyclopropylmethoxy)-4-(difluoromethoxy)phenyl]-2-(3-trifluoromethylphenyl)-[1,2,4]triazolo[1,5-a]pyrimidine]
16 | 18 nM | FC(F)Oc1ccc(-c2ccnc3nc(-c4cccnc4)nn23)cc1OCC1CC1 [Compound 101, 7-[3-(cyclopropylmethoxy)-4-(difluoromethoxy)phenyl]-2-pyridin-3-yl-[1,2,4]triazolo[1,5-a]pyrimidine]
17 | 6 nM | COc1cccc(-c2nc3nccc(-c4ccc(OC(F)F)c(OCC5CC5)c4)n3n2)c1 [Compound 107, 7-[3-(Cyclopropylmethoxy)-4-(difluoromethoxy)phenyl]-2-(3-methoxyphenyl)-[1,2,4]triazolo[1,5-a]pyrimidine]
18 | 30 nM | Cc1cccc(-c2nc3nccc(-c4ccc(OC(F)F)c(OCC5CC5)c4)n3n2)c1 [Compound 132, 7-[3-(Cyclopropylmethoxy)-4-(difluromethoxy)phenyl]-2-m-tolyl-[1,2,4]triazolo[1,5-a]pyrimidine]
19 | 47 nM | N#Cc1cccc(-c2nc3nccc(-c4ccc(OC(F)F)c(OC(F)F)c4)n3n2)c1 [Compound 122, 7-(3,4-Bis-difluoromethoxyphenyl)-2-(3-cyanophenyl)-[1,2,4]triazolo[1,5-a]pyrimidine]
20 | 42 nM | FC(F)Oc1ccc(-c2ccnc3nc(-c4cccnc4)nn23)cc1OCC1CC1 [Compound 111, 3-[7-{3-(cyclopropylmethoxy)-4-(difluoromethoxy)phenyl}-[1,2,4]triazolo[1,5-a]pyrimidin-2-yl]-pyridinium bisulfate]
21 | 23 nM | Fc1cccc(-c2nc3nccc(-c4ccc(OC(F)F)c(OCC5CC5)c4)n3n2)c1 [Compound 106, 7-[3-(Cyclopropylmethoxy)-4-(difluoromethoxy)phenyl]-2-(3-fluorophenyl)-[1,2,4]triazolo[1,5-a]pyrimidine]
22 | 5 nM | FC(F)Oc1ccc(-c2ccnc3nc(-c4cccc(I)c4)nn23)cc1OCC1CC1 [Compound 126, 7-[3-(Cyclopropylmethoxy)-4-(difluoromethoxy)phenyl]-2-(3-iodophenyl)-[1,2,4]triazolo[1,5-a]pyrimidine]
23 | 250 nM | [O-][n+]1cccc(-c2nc3nccc(-c4ccc(OC(F)F)c(OC(F)F)c4)n3n2)c1 [Compound 130, 3-[7-(3,4-Bis-difluoromethoxyphenyl)-[1,2,4]triazolo[1,5-a]pyrimidine-2-yl]-pyridine-N-oxide]
24 | 170 nM | FC(F)Oc1ccc(-c2ccnc3nc(-c4cccnc4)nn23)cc1OC(F)F [Compound 114, 7-(3,4-Bis-difluoromethoxyphenyl)-2-pyridin-3-yl[1,2,4]triazolo[1,5-a]pyrimidine]
25 | 40 nM | FC(F)Oc1ccc(-c2ccnc3nc(-c4cccc(Cl)c4)nn23)cc1OCC1CC1 [Compound 120, 2-(3-Chlorophenyl)-7-[3-(cyclopropylmethoxy)-4-(difluoromethoxy)phenyl]-[1,2,4]triazolo[1,5-a]pyrimidine]

Same assay, conditions: comment on Table 2

Row | SMILES | activity on inhibiting PDE-4 (in words)
26 | FC(F)Oc1ccc(-c2ccnc3nc(-c4cccc(Br)c4)nn23)cc1OCC1CC1 [Compound 121, 2-(3-Bromophenyl)-7-[3-(cyclopropylmethoxy)-4-(difluoromethoxy)phenyl]-[1,2,4]triazolo[1,5-a]pyrimidine] | excellent activity on inhibiting PDE-4
27 | O=C(O)c1cccc(-c2nc3nccc(-c4ccc(OC(F)F)c(OCC5CC5)c4)n3n2)c1 [Compound 131, 3-[7-{3-(Cyclopropylmethoxy)-4-(difluoromethoxy)phenyl}-[1,2,4]triazolo[1,5-a]pyrimidin-2-yl]benzoic acid] | excellent activity on inhibiting PDE-4
28 | COc1cccc(-c2nc3nccc(-c4ccc(OC(F)F)c(OCC5CC5)c4)n3n2)c1 [Compound 107, 7-[3-(Cyclopropylmethoxy)-4-(difluoromethoxy)phenyl]-2-(3-methoxyphenyl)-[1,2,4]triazolo[1,5-a]pyrimidine] | excellent activity on inhibiting PDE-4
29 | FC(F)Oc1ccc(-c2ccnc3nc(-c4cccc(I)c4)nn23)cc1OCC1CC1 [Compound 126, 7-[3-(Cyclopropylmethoxy)-4-(difluoromethoxy)phenyl]-2-(3-iodophenyl)-[1,2,4]triazolo[1,5-a]pyrimidine] | most excellent activity
